The structures appear in SMILES notation.

One data set is described as follows: in vitro. To be noted: human, Caco-2, pH 7.4. As for the experimental part: Drug penetration test: the Transwell culture plate was retrieved from the incubator. […] All samples were prepared in double parallel. The integrity of the cell monolayer membrane after 2 hours of incubation was assessed using leakage of fluorescein; fluorescein stock solution was diluted with HBSS (25 mM HEPES, pH 7.4) to a final concentration of 100 μM. 100 μL of fluorescein solution was added to each well of the upper Transwell plate and 300 μL of HBSS (25 mM HEPES, pH 7.4) was added to each well of the lower receiving plate; after incubation at 37° C. for 30 min, 80 μL of the solution was pipetted from the upper and lower layers of each well to a new 96-well plate.
The apparent permeability coefficients (Papp, unit: cm/s) of the compounds in Caco-2 cells were calculated from the specific concentrations at the acceptor and donor ends, and the specific calculation formula is as follows: […]
where VA represents the volume of the acceptor end solution (0.3 mL for Ap→Bl, 0.1 mL for Bl→Ap); Area represents the area of the Transwell-96 well plate (0.143 cm^2); time represents the incubation time (unit: s); [drug]acceptor represents the drug concentration (ratio of peak area to internal standard area) at the acceptor end; [drug]initial, donor represents the drug concentration at the donor end (ratio of peak area to internal standard area).
The efflux ratio was calculated as follows: […]
where Papp (B-A) represents the apparent permeability coefficient from base end to top end; Papp (A-B) represents the apparent permeability coefficient from top end to base end.

Data set [1] has as its system NCI-H358 tumor (K-RAS G12C mutation). It is filed as in vivo, BALB/c nude mice. The settings on record: for Day 0 Tumor volume (mm^3) Vaverage ± SEM: Day 0 (at grouping, before administration), 15 mg/kg PO QD group; for Day 21 Tumor volume (mm^3) Vaverage ± SEM / Tumor inhibition rate TGI (%) / Tumor regression: Day 21, 15 mg/kg PO QD; for Tumor regression: animals with regression / group of 8; for Day 0 Body weight (g) Waverage ± SEM: mouse, in vivo, po, 15 mg/kg. As for the experimental part:
The cells were digested with trypsin-EDTA twice a week for passaging as per conventional practice. When the cell saturation reached 80%-90% and a required amount was achieved, the cells were collected and counted for later use. […] 5% DMSO/5% Solutol/90% water was used as a blank control. 3) Tumor inoculation and drug administration: BALB/c nude mice, female, 6-8 weeks old, weighing 18-20 g. The experiment started after 3-7 days of adaptive feeding. 0.1 mL of NCI-H358 cells (5×10^6 cells) were inoculated subcutaneously on the right back of each mouse. The mice were grouped for administration when the average tumor volume reached approximately 150 mm^3. The animals were weighed before administration and the tumor volume was measured. Grouping was randomly performed according to the tumor volume.
Animals were monitored daily for health and death, and routine examinations include observation of the effect of tumor growth and drug treatment on the daily performance of the animals, such as behavioral activities, food and water intake, weight changes (measured once every other day), appearance, or other abnormal conditions. Animal mortality and side effects within each group were recorded based on the number of animals in the group.
Tumor diameters were measured 2-3 times weekly using a vernier caliper.
The tumor volume was calculated as follows: […]
where a and b represent the long and short diameters of the tumor, respectively.
The anti-tumor therapeutic effect of the compound was evaluated by tumor growth inhibition rate TGI (%) or relative tumor proliferation rate T/C (%).
TGI (%) was calculated as follows: […]
T/C (%) was calculated as follows: […]
where TRTV represents the relative tumor volume of the treatment group; CRTV represents the relative tumor volume of the solvent control group.
Based on the results of tumor measurement, the relative tumor volume (RTV) was calculated as follows: […]
where V0 represents the average tumor volume measured at the time of grouping and administration (i.e., d0), Vt represents the average tumor volume in a certain measurement, and TRTV and CRTV take the data on the same day.
After the completion of the experiment, tumors were weighed, and the percentage of Tweight/Cweight was calculated, where Tweight and Cweight represent the tumor weights of the treatment group and the solvent control group, respectively.
Data calculation and analysis: T test was employed for comparison between two groups. One-way ANOVA was employed for comparison between three or more groups. If there is a significant difference in F-values, multiple comparisons should be made after ANOVA analysis. All data analyses were performed with SPSS 17.0. p<0.05 was defined as a significant difference.

Take `[2H]C([2H])([2H])c1cccc2cccc(N3CCc4c(nc(OC[C@@H]5CCCN5C)nc4N4CCN(C(=O)C=C)[C@@H](CC#N)C4)C3)c12` [Compound 1, 2-((S)-1-acryloyl-4-(7-(8-(methyl-d3)naphthalen-1-yl)-2-(((S)-1-methylpyrrolidin-2-yl)methoxy)-5,6,7,8-tetrahydropyrido[3,4-d]pyrimidin-4-yl)piperazin-2-yl)acetonitrile]: in “in vitro”, the Papp A→B at 2 h, 10 μM amounted to 0.63 ×10⁻⁶ cm/s; the Papp B→A at 2 h, 10 μM came out at 5.5 ×10⁻⁶ cm/s; the efflux ratio at 2 h, 10 μM turned out to be 8.7. In data set [1], the “Day 0 Tumor volume (mm^3) Vaverage ± SEM” value is 150 ± 10 mm^3, the “Day 21 Tumor volume (mm^3) Vaverage ± SEM” value amounted to 153 ± 14 mm^3, the “Tumor inhibition rate TGI (%)” value is 99.5% and the Tumor regression is 3/8. Also, the “Day 0 Body weight (g) Waverage ± SEM” value in data set [1] is on record as 22.5 ± 0.5 g.

Consider `[2H]C([2H])([2H])N1CCC[C@H]1COc1nc2c(c(N3CCN(C(=O)C=C)[C@@H](CC#N)C3)n1)CCN(c1cccc3cccc(C)c13)C2` [Compound 42, 2-((S)-1-acryloyl-4-(7-(8-methylnaphthalen-1-yl)-2-(((S)-1-(methyl-d3)pyrrolidin-2-yl)methoxy)-5,6,7,8-tetrahydropyrido[3,4-d]pyrimidin-4-yl)piperazin-2-yl)acetonitrile], for which, in data set [1], the “Day 0 Tumor volume (mm^3) Vaverage ± SEM” value is given as 150 ± 9 mm^3, the “Day 21 Tumor volume (mm^3) Vaverage ± SEM” value is on record as 151 ± 18 mm^3, the “Tumor inhibition rate TGI (%)” value is recorded as 99.8% and the Tumor regression is listed as 4/8. For the same compound, the “Day 0 Body weight (g) Waverage ± SEM” value in data set [1] was determined as 22.8 ± 0.6 g.
